Measured values published in PMC11270798, “N ^ α -acetyl-L-ornithine deacetylase from Escherichia coli and a ninhydrin-based assay to enable inhibitor identification” (Frontiers in Chemistry, 2024).

Columns and labels:
EcArgE = biological target: T1, EcArgE (Escherichia coli, UniProt P23908); experiment: Ninhydrin-based ArgE enzyme assay (discontinuous, 570 nm); type: biochemical
T1 construct: The open reading frame (ORF) of the full-length ArgE protein from E. coli was amplified; made in house; host or cells: E. coli
Protocol: A discontinuous assay was performed utilizing a Techne PCR Thermal Cycler System and assays were run with a total reaction volume of 100 µL and a final enzyme concentration of 10 nM. […] The selected inhibitors were dissolved in 50 mM KPi buffer, pH: 7.5 at 30°C and screened at 100 μM or other concentrations, depending on the type of experiment, followed by the EcArgE enzyme and incubated for 10 min. […] A 2% ninhydrin solution (50 μL) was added, and the mixture was mixed by pipetting while cooled to 0°C. The reaction was then heated to 100°C for 10 min. The absorbance of an 80 μL aliquot was recorded at 570 nm on a BioTek Synergy 2 microplate reader. The IC50 values and kinetic constants were calculated using GraphPad Prism using non-linear regression and the Michaelis-Menten equation.

DapE = test system: DapE; set-up: method as in Gillner et al., 2009; details: ref Gillner et al., 2009; cited from earlier work
ArgE [1] = biological target: T2, ArgE (Escherichia coli, UniProt P23908); experiment: Cleavage of alternative substrates by ArgE; type: biochemical; set-up: The open reading frame (ORF) of the full-length ArgE protein from E. coli was amplified; made in house; host or cells: E. coli
Description: Previously, Blanchard developed a simple, continuous 214 nm assay ([Javid-Majd and Blanchard, 2000]) using the endogenous substrate NAO to test potential inhibitors of ArgE. The 214 nm assay is a simple and reproducible assay but it is not useful for inhibitors that absorb strongly in the UV region, therefore excluding many drug-like molecules, as high background UV absorption would lead to greater background and obscure the actual enzyme cleavage data. […] As an alternative assay, we explored another potential substrate, p-nitrophenyl acetate, in the hope that ArgE would cleave the acetate to yield the product p-nitrophenol, but we observed no cleavage based on monitoring at 405 nm ([Means and Bender, 1975]). We also attempted the use of the DapE alternate substrate N ^6-methyl-N-succinyl-L,L-diaminopimelic acid (N ^6-methyl-SDAP) ([Heath et al., 2018]) because of the similarities between the ArgE and DapE active site structure but observed no cleavage of this synthetic substrate at 225 nm. We therefore designed a ninhydrin-based assay similar to our DapE ninhydrin-based assay ([Heath et al., 2018]) to enable the analysis of more structurally diverse inhibitors.

ArgE [2] = biological target: T2, ArgE; experiment: biochemical; details: read-out: % inhibition at 2 mM
[3] = biological target: the molecule itself; experiment: crystal structure; EcArgE crystallised by sitting-drop vapor diffusion at 16°C; mono-Zn form from 1 M ammonium citrate, 0.1 M Bis-Tris propane pH 7.0; di-Zn form from 0.2 M lithium sulfate, 30% PEG 3350, 0.1 M Tris pH 8.5; dimer seen in the crystals
[4] = 100 μM inhibitor, ninhydrin assay, substrate 3

## C[C@H](CS)C(=O)N1CCC[C@H]1C(=O)O [Entry 1, captopril, reference compound]
EcArgE; [4]
  inhibition at 100 µM: 57.8 ± 0.04%
EcArgE; ArgE
  mode of inhibition: […]
DapE
  IC50: […]
  mode of inhibition: […]

## CN(C)c1ccc(C(=O)O)cc1 [Entry 28]
EcArgE; [4]
  inhibition at 100 µM: 41 ± 10.8%

## N#Cc1ccc(B(O)O)cc1 [Entry 8]
EcArgE; [4]
  inhibition at 100 µM: 48 ± 2.6%

## OB(O)c1cccc(OCc2ccccc2)c1 [Entry 21]
EcArgE; [4]
  inhibition at 100 µM: 40.3 ± 6.8%

## CCN(CC)c1ccc(C(=O)O)cc1 [Entry 27]
EcArgE; [4]
  inhibition at 100 µM: 53.4 ± 2.6%

## CN[C@@H](CCC[C@H](NC(=O)CCC(=O)O)C(=O)O)C(=O)O [N ^6-methyl-SDAP, N ^6-methyl-N-succinyl-L,L-diaminopimelic acid]
ArgE [1]; monitoring at 225 nm
  cleavage by ArgE: no cleavage

## OB(O)c1cc(C(F)(F)F)cc(C(F)(F)F)c1 [Entry 22]
EcArgE; [4]
  % Inhibition at 100 μM: lacked activity
  inhibition at 100 µM: 0%

## OB(O)c1cccc(Cl)c1 [Entry 19]
EcArgE; [4]
  inhibition at 100 µM: 19.7 ± 3%

## O=C(O)c1ccc(B(O)O)cc1 [Entry 5, 4-carboxyphenylboronic acid]
EcArgE
  IC50: 54.1 µM
EcArgE; [4]
  inhibition at 100 µM: 80.4 ± 3.7%

## NC(CO)(CO)CO [Tris]
ArgE [2]
  inhibition at 2000 µM: 21.2%

## OB(O)c1ccc2c(c1)OCO2 [Entry 20]
EcArgE; [4]
  inhibition at 100 µM: 47 ± 2.7%

## Cc1ccc(B(O)O)cc1 [Entry 7]
EcArgE; [4]
  inhibition at 100 µM: 59 ± 9.4%

## O=C(O)c1ccc([N+](=O)[O-])cc1 [Entry 26, 4-nitrobenzoic acid]
EcArgE; [4]
  inhibition at 100 µM: 57.9 ± 7.1%

## OB(O)c1ccccc1 [Entry 3, phenylboronic acid]
EcArgE; [4]
  inhibition at 100 µM: 41.9 ± 1.8%

## OB(O)c1ccc(Oc2ccc(Cl)cc2)cc1 [Entry 16]
EcArgE; [4]
  inhibition at 100 µM: 55.7 ± 4.9%

## OB(O)c1ccc(Oc2ccccc2)cc1 [Entry 15]
EcArgE; [4]
  inhibition at 100 µM: 48.8 ± 2.7%

## OB(O)c1ccccc1C(F)(F)F [Entry 23]
EcArgE; [4]
  inhibition at 100 µM: 40.6 ± 9%

## OB(O)c1ccc2ccccc2c1 [Entry 24]
EcArgE; [4]
  inhibition at 100 µM: 16.2 ± 6.1%

## CS(=O)(=O)Nc1ccc(B(O)O)cc1 [Entry 14]
EcArgE; [4]
  inhibition at 100 µM: 23.5 ± 6.9%

## CC(=O)Nc1ccc(B(O)O)cc1 [Entry 13]
EcArgE; [4]
  inhibition at 100 µM: 24 ± 6.9%

## OB(O)c1ccc(O)cc1 [Entry 9]
EcArgE; [4]
  inhibition at 100 µM: 29.8 ± 11.2%

## OB(O)c1ccc(OC(F)(F)F)cc1 [Entry 10]
EcArgE; [4]
  inhibition at 100 µM: 25.5 ± 2.4%

## OB(O)c1ccc(Oc2ccc(OC(F)(F)F)cc2)cc1 [Entry 17]
EcArgE; [4]
  inhibition at 100 µM: 36 ± 5.8%

## OB(O)c1ccc(Cl)cc1 [Entry 6, 4-chlorophenylboronic acid]
EcArgE; [4]
  inhibition at 100 µM: 68.7 ± 1.2%

## OB(O)c1ccc(F)cc1 [Entry 11]
EcArgE; [4]
  inhibition at 100 µM: 8.1 ± 4.1%

## OB(O)c1ccc(Oc2ccc(F)cc2)cc1 [Entry 18]
EcArgE; [4]
  inhibition at 100 µM: 9.3 ± 1.8%

## CC(=O)Oc1ccc([N+](=O)[O-])cc1 [p-nitrophenyl acetate]
ArgE [1]; monitoring at 405 nm
  cleavage by ArgE: no cleavage

## CC(=O)c1ccc(B(O)O)cc1 [Entry 12]
EcArgE; [4]
  inhibition at 100 µM: 15.8 ± 1.9%

## CCN(CC)c1ccc(B(O)O)cc1 [Entry 4, 4-(diethylamino)phenylboronic acid]
EcArgE
  IC50: 50.1 µM
EcArgE; [4]
  inhibition at 100 µM: 91.5 ± 1.5%

B1: N-alpha-acetyl-L-ornithine deacetylase (ArgE) from Escherichia coli (enzyme, E. coli, UniProt P23908 1-383, looked up)
chain: MKNKLPPFIEIYRALIATPSISATEEALDQSNADLITLLADWFKDLGFNVEVQPVPGTRNKFNMLASIGQGAGGLLLAGHTDTVPFDDGRWTRDPFTLTEHDGKLYGLGTADMKGFFAFILDALRDVDVTKLKKPLYILATADEETSMAGARYFAETTALRPDCAIIGEPTSLQPVRAHKGHISNAIRIQGQSGHSSDPARGVNAIELMHDAIGHILQLRDNLKERYHYEAFTVPYPTLNLGHIHGGDASNRICACCELHMDIRPLPGMTLNELNGLLNDALAPVSERWPGRLTVDELHPPIPGYECPPNHQLVEVVEKLLGAKTEVVNYCTEAPFIQTLCPTLVLGPGSINQAHQPDEYLETRFIKPTRELITQVIHHFCWH
notes: N-alpha-acetyl-L-ornithine deacetylase (ArgE), Escherichia coli, full-length ORF amplified from genomic DNA; catalytic domain residues 1-179 and 305-383, dimerization domain residues 180-304; Crystallised in a mono-zinc form (PDB 7RSF) and a di-zinc form (PDB 8UW6); same protein and purification for both; Three N-terminal residues are not modelled in the structures; also called EcArgE; E. coli …
[3]
  binding result: binds
